Data from publication PMC4281354, “The opioid receptor pharmacology of GSK1521498 compared to other ligands with differential effects on compulsive reward-related behaviours” (Psychopharmacology, 2014).
Counter-ions that a name gives are not always drawn. Like-named read-outs stand apart in the source and are kept apart here.

Experiments:
human NOPr = human NOPr (Homo sapiens, UniProt P41146); experiment: Antagonism of nociceptin-stimulated [35S]GTPγS binding, CHO membranes overexpressing NOPr (SPA, antagonist mode); assay type: biochemical
human NOPr, sequence (P41146 whole entry): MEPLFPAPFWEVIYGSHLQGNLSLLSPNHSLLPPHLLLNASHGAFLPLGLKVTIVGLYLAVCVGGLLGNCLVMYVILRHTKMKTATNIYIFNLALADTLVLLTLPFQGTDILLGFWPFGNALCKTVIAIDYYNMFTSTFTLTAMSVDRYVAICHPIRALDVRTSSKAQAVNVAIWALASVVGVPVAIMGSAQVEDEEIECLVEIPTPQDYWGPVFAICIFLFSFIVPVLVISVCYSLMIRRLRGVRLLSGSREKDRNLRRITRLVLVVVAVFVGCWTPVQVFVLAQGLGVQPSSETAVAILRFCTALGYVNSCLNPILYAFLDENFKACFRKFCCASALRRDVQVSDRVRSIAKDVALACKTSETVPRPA

MOPr [1] = target: T1, MOPr (Homo sapiens, UniProt P35372); experiment: Basal [35S]GTPγS binding, membranes from CHO cells expressing a low level of MOPr; assay type: biochemical; conditions: 1 μM, CHO MOPr approximately 70 fmol per milligram of protein
T1 sequence (P35372 whole entry): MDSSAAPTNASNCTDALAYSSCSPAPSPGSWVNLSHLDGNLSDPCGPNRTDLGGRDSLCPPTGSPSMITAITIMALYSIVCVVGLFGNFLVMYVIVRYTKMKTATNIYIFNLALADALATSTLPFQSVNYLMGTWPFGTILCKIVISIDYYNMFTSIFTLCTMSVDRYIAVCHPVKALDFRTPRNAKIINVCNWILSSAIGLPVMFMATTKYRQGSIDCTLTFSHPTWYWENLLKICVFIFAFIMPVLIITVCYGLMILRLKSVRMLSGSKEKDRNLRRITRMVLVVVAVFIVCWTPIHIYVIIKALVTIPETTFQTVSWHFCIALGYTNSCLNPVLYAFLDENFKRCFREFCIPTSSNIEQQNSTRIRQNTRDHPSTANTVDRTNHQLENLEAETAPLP

MOPr [2] = target: T1, MOPr; experiment: Antagonism of Met-Enk-stimulated [35S]GTPγS binding, CHO membranes overexpressing MOPr (SPA, antagonist mode); assay type: biochemical
MOPr [3] = target: T1, MOPr; experiment: Basal [35S]GTPγS binding, CHO membranes overexpressing MOPr (agonist mode); assay type: biochemical
MOPr [4] = target: T1, MOPr; experiment: [3H]naloxone dissociation kinetics from MOPr, MOPr-HEK293 membranes; assay type: binding; conditions: drug 1 μM
heroin seeking = tested on: heroin seeking; parameters: method as in Giuliano et al. [2013]; conditions: ref Giuliano et al. [2013]; cited from earlier work
human KOPr = human KOPr (Homo sapiens, UniProt P41145); experiment: Antagonism of dynorphin-stimulated [35S]GTPγS binding, CHO membranes overexpressing KOPr (SPA, antagonist mode); assay type: biochemical
human KOPr, sequence (P41145 whole entry): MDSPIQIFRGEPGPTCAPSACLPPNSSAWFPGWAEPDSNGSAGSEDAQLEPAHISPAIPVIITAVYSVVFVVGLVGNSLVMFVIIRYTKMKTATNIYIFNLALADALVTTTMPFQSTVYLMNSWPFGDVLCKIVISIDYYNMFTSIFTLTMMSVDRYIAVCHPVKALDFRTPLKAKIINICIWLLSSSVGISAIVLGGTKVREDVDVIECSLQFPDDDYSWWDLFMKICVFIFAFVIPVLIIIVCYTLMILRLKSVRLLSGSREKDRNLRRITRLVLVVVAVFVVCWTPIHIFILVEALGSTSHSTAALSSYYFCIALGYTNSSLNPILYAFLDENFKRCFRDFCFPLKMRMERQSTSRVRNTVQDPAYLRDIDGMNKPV

MOPr [5] = target: T1, MOPr; experiment: [3H]naloxone competition displacement binding, MOPr-HEK293 membranes
cocaine seeking = tested on: cocaine seeking; parameters: method as in Giuliano et al. [2013]; conditions: ref Giuliano et al. [2013]; cited from earlier work
[6] = target: MOPr in mouse brain membranes (Mus musculus, UniProt P42866); experiment: Basal [35S]GTPγS binding, whole mouse brain membranes (naive or morphine-pretreated mice); assay type: biochemical; conditions: 1 μM
MOPr in mouse brain membranes, sequence (P42866 whole entry): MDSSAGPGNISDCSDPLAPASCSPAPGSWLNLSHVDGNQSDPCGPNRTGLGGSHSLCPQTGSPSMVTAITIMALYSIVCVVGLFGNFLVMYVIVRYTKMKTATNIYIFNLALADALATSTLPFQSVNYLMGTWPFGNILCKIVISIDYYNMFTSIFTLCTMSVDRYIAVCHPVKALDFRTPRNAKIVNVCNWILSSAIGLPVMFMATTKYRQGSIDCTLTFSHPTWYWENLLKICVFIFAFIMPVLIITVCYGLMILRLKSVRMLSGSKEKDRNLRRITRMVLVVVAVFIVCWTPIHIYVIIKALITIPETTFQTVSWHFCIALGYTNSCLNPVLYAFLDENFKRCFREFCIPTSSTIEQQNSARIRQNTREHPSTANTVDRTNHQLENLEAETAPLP

human DOPr = human DOPr (Homo sapiens, UniProt P41143); experiment: Antagonism of Met-Enk-stimulated [35S]GTPγS binding, CHO membranes overexpressing DOPr (SPA, antagonist mode); assay type: biochemical
human DOPr, sequence (P41143 whole entry): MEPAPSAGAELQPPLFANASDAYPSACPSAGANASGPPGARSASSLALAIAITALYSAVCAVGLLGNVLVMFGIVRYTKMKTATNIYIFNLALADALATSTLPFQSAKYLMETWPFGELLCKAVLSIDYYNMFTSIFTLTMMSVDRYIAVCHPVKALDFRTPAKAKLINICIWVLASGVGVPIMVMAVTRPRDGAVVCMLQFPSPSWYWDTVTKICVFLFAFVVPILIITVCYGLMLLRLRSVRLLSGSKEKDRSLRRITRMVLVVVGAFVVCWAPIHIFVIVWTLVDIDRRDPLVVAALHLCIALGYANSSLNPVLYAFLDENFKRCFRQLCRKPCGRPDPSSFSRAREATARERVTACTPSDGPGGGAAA

[7] = tested on: K+ current in rat brain neurons; parameters: method as in Bailey et al. [2009]; conditions: ref Bailey et al. [2009], read-out: EC50 for activation of the K+ current; cited from earlier work
[8] = from fpKi, GTPγS antagonist mode

Oc1ccc2c3c1O[C@H]1[C@H](O)CC[C@@]4(O)[C@@H](C2)N(CC2CC2)CC[C@]314 [6β-Naltrexol, 6-β-naltrexol]
Antagonist potency (fpKi) NOPr (human NOPr; vs nociceptin, CHO cells overexpressing NOPr, mean ± SEM of three experiments): <5

Fc1cc(-c2cccc(-c3nc[nH]n3)c2)cc(F)c1CNC1Cc2ccccc2C1.O=P(O)(O)O [GSK1521498, N-{[3,5-difluoro-3′-(1H-1,2,4-triazol-3-yl)-4-biphenylyl]methyl}-2,3-dihydro-1H-inden-2-amine phosphate (1:1)]
effect on basal level of GTPγS binding (MOPr [1]): did not modify
completeness of inhibition of the agonist response at MOPr (MOPr [2]; Met-Enk-stimulated GTPγS binding, CHO overexpressing MOPr): completely antagonize
Ki (MOPr [2]; vs Met-Enk, CHO cells overexpressing MOPr, mean ± SEM of three experiments, read-out: Antagonist potency (fpKi) MOPr (converted)): 0.229 nM
inhibition of basal [35S]GTPγS binding (MOPr [3]; CHO membranes highly overexpressing MOPr (Bmax 14,500 fmol/mg protein)): up to 18%
agonist activity when administered alone (MOPr [3]; at any of the opioid receptors, concentrations up to 100 μM): did not show agonist activity
concentrations producing a significant inhibition of basal [35S]GTPγS binding (MOPr [3]; p < 0.001, ANOVA): greater than 0.4 nM
rate of 3H-naloxone dissociation in the presence of drug (MOPr [4]): unchanged
greater reduction in heroin seeking compared to naltrexone 3 mg/kg (heroin seeking): 5.5 fold
selectivity for MOPr over KOPr (human KOPr; [8]): 14 fold
Ki (human KOPr; vs dynorphin, CHO cells overexpressing KOPr, mean ± SEM of three experiments, read-out: Antagonist potency (fpKi) KOPr (converted)): 3.31 nM
maximum displacement of specific 3H-naloxone binding (MOPr [5]; HEK293 MOPr membranes): 100%
Ki (MOPr [5]; read-out: Affinity of binding (pKi) to MOPr (converted)): 0.417 nM
greater reduction in cocaine seeking compared to naltrexone 3 mg/kg (cocaine seeking): 2.5 fold
Ki (human NOPr; vs nociceptin, CHO cells overexpressing NOPr, mean ± SEM of three experiments, read-out: Antagonist potency (fpKi) NOPr (converted)): 257 nM
effect on basal [35S]GTPγS binding, naïve mice ([6]; brain membranes from naïve mice): did not reduce
effect on basal [35S]GTPγS binding, severe morphine pre-treatment ([6]; brain membranes, 75 mg morphine pellet sc 3 days): very slight but statistically significant inhibition
effect on basal [35S]GTPγS binding, acute morphine pre-treatment ([6]; brain membranes, morphine 100 mg/kg sc 4 h before sacrifice): did not reduce
effect on basal [35S]GTPγS binding, moderate morphine pre-treatment ([6]; brain membranes, sc morphine at 8-h intervals for 3 days): did not reduce
selectivity for MOPr over DOPr (human DOPr; [8]): 14 fold
Ki (human DOPr; vs Met-Enk, CHO cells overexpressing DOPr, mean ± SEM of three experiments, read-out: Antagonist potency (fpKi) DOPr (converted)): 3.16 nM

CSCC[C@H](NC(=O)[C@H](Cc1ccccc1)NC(=O)CNC(=O)CNC(=O)[C@@H](N)Cc1ccc(O)cc1)C(=O)O [Met-Enk, methionine enkephalin acetate salt hydrate]
EC50 [7]: 1000 nM

C=C1CC[C@@]2(O)[C@H]3Cc4ccc(O)c5c4[C@@]2(CCN3CC2CC2)[C@H]1O5 [Nalmefene, nalmefene, reference compound]
completeness of inhibition of the agonist response at MOPr (MOPr [2]): did not produce complete inhibition
enhancement of basal [35S]GTPγS binding (MOPr [3]): 20%
Ki (human NOPr): > 10000 nM
